These compounds were tested against MAPK14;MAPK11;MAPK12 (human) (UniProt Q16539) (assay: Inhibition of p38 Kinase Activity).

| SMILES | IC50 [µM] |
| --- | --- |
| CC(CNc1nc(Nc2ccc3ncsc3c2)nc(N(C)CCCN(C)S(=O)(=O)N(C)C)n1)c1ccccc1 (stereo not given) | < 10 |
| CNC1CCN(c2cc(NCCOC(C)C)nc(-n3cnc4ccccc43)n2)C1 (stereo not given) | < 10 |
| CC(CN(C)c1nc(Nc2ccc3ncsc3c2)nc(N(C)C)n1)c1ccccc1 (stereo not given) | < 10 |
| CNC1CCN(c2cc(NCCOC(C)C)nc(-n3cnc4ccc(C)cc43)n2)C1 (stereo not given) | < 10 |
| CC1(C)[C@H]2CC[C@H](CNc3nc(Cl)nc(Nc4ccc5ncsc5c4)n3)[C@@H]1C2 | < 10 |
| CC(CCCCCCN(C)c1nc(NCC(C)c2ccccc2)nc(Nc2ccc3ncsc3c2)n1)C(N)=O (stereo not given) | < 10 |
| CC(=O)N1CCN(c2nc(NCC(C)c3ccccc3)nc(Nc3ccc4ncsc4c3)n2)CC1 (stereo not given) | < 10 |
| CC(CNc1nc(Nc2ccc3ncsc3c2)nc(N(C)CCCN(C)C(=S)NC2CCCCC2)n1)c1ccccc1 (stereo not given) | < 10 |
| CN(CCN(C)c1nc(NCc2ccc(F)cc2F)nc(-n2cnc3ccccc32)n1)C(=O)CCC(=O)O | < 10 |
| Clc1nc(Nc2ccc3ncsc3c2)nc(N[C@H]2C[C@H]2c2ccccc2)n1 | < 10 |
| CN(CC1CCC2CC1C2(C)C)c1nc(Nc2ccc3ncsc3c2)nc(N2CCN(S(C)(=O)=O)CC2)n1 (stereo not given) | < 10 |
| CN(CC1CC[C@H]2C[C@@H]1C2(C)C)c1nc(Nc2ccc3ncsc3c2)nc(N2CCN(C(=O)CCC(=O)O)CC2)n1 (stereo not given in full) | < 10 |
| CC(C)(Cc1ccccc1)Nc1nc(Nc2ccc3ncsc3c2)nc(N2CCNCC2)n1 | < 10 |
| O=C(O)CCC(=O)N1CCN(c2nc(NCC3CCCCC3)nc(Nc3ccc4ncsc4c3)n2)CC1 | < 10 |
| CC(Cc1ccccc1)Nc1nc(Nc2ccc3ncsc3c2)nc(N2CCNCC2)n1 (stereo not given) | < 10 |
| CC1(C)[C@H]2CC[C@@H](CNc3nc(Cl)nc(Nc4ccc5ncsc5c4)n3)[C@@H]1C2 | < 10 |
| CCCN(C)c1nc(Nc2cc(C(N)=O)ccc2C)nc(N[C@H]2CCNC2)n1 | < 1 |
| Cc1ccc(C(N)=O)cc1Nc1nc(NC2CCCC2)nc(NC2CCN(Cc3ccccc3)C2)n1 (stereo not given) | < 1 |
| Cc1ccc(C(N)=O)cc1Nc1nc(N[C@H]2CCNC2)nc(N(C)CC23CC4CC(CC(C4)C2)C3)n1 | < 1 |
| COCCNC(=O)c1ccc(C)c(Nc2nc(N[C@H]3CCNC3)nc(N(C)CC(C)(C)C)n2)c1 | < 1 |
| Clc1nc(Nc2ccc3ncsc3c2)nc(N2CCc3ccccc3C2)n1 | < 10 |
| Cc1ccc(C(N)=O)cc1Nc1nc(NC2CCCNC2)nc(N(C)CC(C)C)n1 (stereo not given) | < 1 |
| Cc1ccc(C(N)=O)cc1Nc1nc(NCC(C)C)nc(N[C@H]2CCNC2)n1 | < 1 |
| CCONC(=O)c1ccc(C)c(Nc2nc(N(C)CC(C)(C)C)nc(N3CCCNCC3)n2)c1 | < 1 |
| Cc1ccc(C(=O)NC#N)cc1Nc1nc(N[C@H]2CCNC2)nc(N(C)CC(C)(C)C)n1 | < 1 |

| SMILES | IC50 [µM] |
| --- | --- |
| Cc1ccc(C(N)=O)cc1Nc1nc(N[C@H]2CCN(Cc3cccc(C#N)c3)C2)nc(N(C)CC(C)C)n1 | < 1 |
| Cc1ccc(C(N)=O)cc1Nc1nc(NC2CCS(=O)(=O)C2)nc(N(C)CC(C)(C)C)n1 (stereo not given) | < 1 |
| Cc1ccc(C(N)=O)cc1Sc1nc(NCc2ccccn2)nc(N(C)CC(C)(C)C)n1 | < 30 |
| Cc1cc(Cl)c(C(N)=O)cc1Nc1nc(N[C@H]2CCNC2)nc(N(C)CC(C)C)n1 | < 1 |
| Cc1ccc(C(N)=O)cc1Oc1nc(NCc2ccccn2)nc(N(C)CC(C)(C)C)n1 | < 30 |
| CC1(C)C2CCC(CNc3nc(Nc4ccc5scnc5c4)nc(N4CCNCC4)n3)C1C2 (stereo not given) | < 10 |
| CC(=O)NCCNc1nc(Nc2cc(C(N)=O)ccc2C)nc(N(C)CC(C)(C)C)n1 | < 1 |
| Cc1cc(Cl)c(C(N)=O)cc1Nc1nc(N[C@H]2CCNC2)nc(N(C)CC(C)(C)C)n1 | < 1 |
| Cc1ccccc1NC(=O)c1ccc(C)c(Nc2nc(N[C@H]3CCNC3)nc(N(C)CC(C)(C)C)n2)c1 | < 1 |
| CCONC(=O)c1ccc(C)c(Nc2nc(N[C@@H]3CCNC3)nc(N(C)CC(C)C(F)(F)F)n2)c1 (stereo not given in full) | < 1 |
| C[C@H](CNc1nc(NCCO)nc(Nc2ccc3ncsc3c2)n1)c1ccccc1 | < 10 |
| Cc1ccc(C(N)=O)cc1Nc1nc(N[C@@H]2CCN(C(C)CC(C)C)C2)nc(N(C)CC(C)(C)C)n1 (stereo not given in full) | < 1 |
| CCNC(=O)N1CCN(c2nc(NC[C@@H]3CC[C@H]4C[C@@H]3C4(C)C)nc(Nc3ccc4ncsc4c3)n2)CC1 | < 10 |
| Cc1ccc(C(N)=O)cc1Nc1nc(NC2CCCCC2)nc(N(C)CC(C)(C)C)n1 | < 1 |
| Cc1ccc(C(N)=O)cc1Nc1nc(NCC2CCNCC2)nc(NC(C)C2CCCCC2)n1 (stereo not given) | < 1 |
| Cc1ccc(C(N)=O)cc1Nc1nc(NC2CCNC2)nc(NC2CCN(Cc3ccccc3)C2)n1 (stereo not given) | < 1 |
| CONC(=O)c1ccc(C)c(Nc2nc(NC(C)c3ccccn3)nc(N(C)CC(C)(C)C)n2)c1 (stereo not given) | < 1 |
| CCONC(=O)c1ccc(C)c(Nc2cc(N(C)CC(C)(C)C)nc(N3CCCN(C)CC3)n2)c1 | < 1 |
| Cc1ccc(C(N)=O)cc1Nc1nc(NCC23CC4CC(CC(C4)C2)C3)nc(N[C@@H]2CCNC2)n1 | < 1 |
| Cc1ccc(C(N)=O)cc1Nc1nc(N[C@H]2CCN(Cc3ccccn3)C2)nc(N(C)CC(C)C)n1 | < 1 |
| Cc1ccc2c(c1Nc1nc(N[C@H]3CCNC3)nc(N(C)CC(C)(C)C)n1)CNC2=O | < 1 |
| Cc1ccc(C(N)=O)cc1Nc1nc(N[C@H]2CCNC2)nc(N(C)CC2CCCCC2)n1 | < 1 |
| CC(CNc1nc(Nc2ccc3ncsc3c2)nc(N2CCN(C(=S)NC3CCCCC3)CC2)n1)c1ccccc1 (stereo not given) | < 10 |
| CC1(C)C2CCC(CNc3nc(Nc4ccc5ncsc5c4)nc(N4CCN(C(=O)CCC(=O)O)CC4)n3)C1C2 (stereo not given) | < 10 |

The next lines start with the values.

| IC50 [µM] | SMILES |
| --- | --- |
| < 1 | COCCNC(=O)c1ccc(C)c(Nc2nc(N[C@H]3CCNC3)nc(N(C)CC(C)C)n2)c1 |
| < 1 | CCNC(=O)c1ccc(C)c(Nc2nc(N[C@H]3CCNC3)nc(N(C)CC(C)C)n2)c1 |
| < 1 | Cc1ccc(C(N)=O)cc1Nc1nc(N[C@H]2CCN(Cc3cccc(O)c3)C2)nc(N(C)CC(C)C)n1 |
| < 1 | CONC(=O)c1ccc(C)c(Nc2nc(N[C@H]3CCNC3)nc(N(C)CC(C)(C)C)n2)c1 |
| < 1 | Cc1ccc(C(N)=O)cc1Nc1nc(N[C@@H]2CCNC2)nc(N(C)CC2(C)CCCC2)n1 |
| < 1 | Cc1ccc(C(N)=O)cc1Nc1nc(N[C@H]2CCN(C(C)c3ccccc3)C2)nc(N(C)CC(C)C)n1 (stereo not given in full) |
| < 1 | CCNC(=O)c1ccc(C)c(Nc2nc(NC[C@H]3CCCN3)nc(N(C)CC(C)C)n2)c1 |
| < 1 | CONC(=O)c1ccc(C)c(Nc2nc(NCCc3ccccn3)nc(N(C)CC(C)(C)C)n2)c1 |
| < 1 | Cc1ccc(-c2nc3ccccc3[nH]2)cc1Nc1nc(N[C@@H]2CCNC2)nc(N(C)CC(C)(C)C)n1 |
| < 1 | Cc1ccc(C(N)=O)cc1Nc1nc(NCC(C)c2ccccc2)nc(N[C@H]2CCNC2)n1 (stereo not given in full) |
| < 1 | Cc1ccc(CO)cc1Nc1nc(N[C@H]2CCNC2)nc(N(C)CC(C)(C)C)n1 |
| < 1 | Cc1ccc(C(=O)Nc2cccc(N(C)C)c2)cc1Nc1nc(N[C@H]2CCNC2)nc(N(C)CC(C)C)n1 |
| < 1 | CONC(=O)c1ccc(C)c(Nc2nc(NCc3cccc(F)c3)nc(N(C)CC(C)(C)C)n2)c1 |
| < 1 | Cc1ccc(C(N)=O)cc1Nc1nc(NCC(C)(C)C)nc(N[C@@H]2CCNC2)n1 |
| < 1 | Cc1ccc(C(N)=O)cc1Nc1nc(NCC(C)(C)C)nc(N[C@H]2CCNC2)n1 |
| < 1 | Cc1ccc(C(N)=O)cc1Nc1nc(NC2CCN(C)C2)nc(N(C)CC(C)C)n1 (stereo not given) |

| IC50 [µM] | SMILES |
| --- | --- |
| < 1 | Cc1ccc(CN2CC[C@H](Nc3nc(Nc4cc(C(N)=O)ccc4C)nc(N(C)CC(C)C)n3)C2)cc1 |
| < 1 | Cc1ccc(C(N)=O)cc1Nc1nc(N[C@H]2CCN(Cc3ccccc3C#N)C2)nc(N(C)CC(C)C)n1 |
| < 1 | Cc1ccc(C(N)=O)cc1Nc1nc(NC2CCCC2)nc(N(CCO)Cc2ccccc2)n1 |
| < 1 | Cc1ccc(C(N)=O)cc1Nc1nc(N[C@H]2CCN(C)C2)nc(N(C)CC(C)(C)C)n1 |
| < 1 | CNC(=O)c1ccc(C)c(Nc2nc(NCC(C)(C)C)nc(N[C@H]3CCNC3)n2)c1 |
| < 1 | CONC(=O)c1ccc(C)c(Nc2nc(N(C)CC(C)(C)C)cc(N3CCCN(C)CC3)n2)c1 |
| < 1 | CCC(C)CNc1nc(Nc2cc(C(N)=O)ccc2C)nc(N[C@H]2CCNC2)n1 (stereo not given in full) |
| < 1 | CNC(=O)c1ccc(C(F)(F)F)c(Nc2nc(N[C@H]3CCNC3)nc(N(C)CC(C)(C)C)n2)c1 |
| < 1 | Cc1ccc(C(N)=O)cc1Nc1nc(N[C@H]2CCNC2)cc(N(C)CC(C)C)n1 |
| < 1 | Cc1ccc(C(N)=O)cc1Nc1nc(N[C@H]2CCN(C3CCC3)C2)nc(N(C)CC(C)(C)C)n1 |
| < 1 | Cc1ccc(C(N)=O)cc1Nc1nc(N[C@H]2CCN(Cc3ccc(C(C)C)cc3)C2)nc(N(C)CC(C)C)n1 |
| < 1 | Cc1ccc(C(N)=O)cc1Nc1nc(N[C@H]2CCN(Cc3ccc(C(C)(C)C)cc3)C2)nc(N(C)CC(C)C)n1 |
| < 1 | CNC(=O)c1ccc(C)c(Nc2nc(N[C@H]3CCNC3)nc(SCC(C)C)n2)c1 |
| < 1 | CONC(=O)c1ccc(C)c(Nc2nc(NCC3CCC(=O)N3)nc(N(C)CC(C)(C)C)n2)c1 (stereo not given) |
| < 1 | Cc1ccc(C(N)=O)cc1Nc1nc(N[C@@H]2CCCC[C@@H]2N)nc(N(C)CC(C)(C)C)n1 |
